Here are results for ten molecules from PubChem BioAssay (NCI).

Each structure is given as a SMILES string. “And” between values parts separate entries of the source, which are not always exact repeats. Identical values can stand only once.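 All cell lines were grown in 96-well plates and treated with compound for 48 hours. GI50 marks 50% less growth. At the TGI there is no net growth.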

Test systems include COLO 205 colon; PC-3 prostate; MDA-MB-231 breast; HCT-116 colon; NCI/ADR-RES ovarian; A549 NSCLC; HL-60(TB) leukemia; HCT-15 colon.
Holding throughout (assay): growth of human tumour cells (NCI), 48 h

For `Cn1cc(C2=C(c3cc[nH]c3)C(=O)NC2=O)c2ccccc21`, the GI50 with COLO 205 colon, in the assay with PC-3 prostate, in the assay on MDA-MB-231 breast, with HCT-116 colon, with NCI/ADR-RES ovarian and in the assay on A549 NSCLC was > 25 µM throughout. Besides, the GI50 with HL-60(TB) leukemia and in the assay on HCT-15 colon was > 25 µM in each case. Also, the TGI in the assay on COLO 205 colon, with PC-3 prostate, with MDA-MB-231 breast, in the assay with HCT-116 colon, in the assay on NCI/ADR-RES ovarian and with A549 NSCLC was > 25 µM each time. Also, the TGI with HL-60(TB) leukemia and in the assay with HCT-15 colon was > 25 µM throughout.

Turning to `COc1cccc(N2CCN(c3ncnc4cc[nH]c34)CC2)c1`, the GI50 is 11.2 µM in the assay with COLO 205 colon; 6.99 µM in the assay with PC-3 prostate; 79.9 µM with MDA-MB-231 breast; 3.67 µM in the assay on HCT-116 colon; 2.87 µM with NCI/ADR-RES ovarian; 12.2 µM with A549 NSCLC. Moreover, the GI50 in the assay on HL-60(TB) leukemia was 5.84 µM; with HCT-15 colon, 24.4 µM. In addition, the TGI is 45.5 µM with COLO 205 colon; > 100 µM with PC-3 prostate; > 100 µM with MDA-MB-231 breast; > 100 µM in the assay with HCT-116 colon; 40.4 µM in the assay with NCI/ADR-RES ovarian; > 100 µM with A549 NSCLC. Further, the TGI was 74 µM in the assay on HL-60(TB) leukemia and > 100 µM in the assay on HCT-15 colon.

As to `C=C(C)C1CCC2=CC(CC3(C)OC3C3=CC(C(=O)OC)=C(C1)O3)OC2=O` (configuration not stated), the TGI in the assay with PC-3 prostate, with MDA-MB-231 breast, in the assay with HCT-116 colon, in the assay on NCI/ADR-RES ovarian, in the assay with A549 NSCLC and with HCT-15 colon was > 100 µM in each case.

Take `O=c1cc(-c2ccccc2)oc2cc(OCCCCCN3CCOCC3)cc(O)c12`: the GI50 in the assay on COLO 205 colon was > 100 µM; with PC-3 prostate it was 54.1 µM; with MDA-MB-231 breast it was 15.6 µM; with HCT-116 colon, 19.2 µM; in the assay on NCI/ADR-RES ovarian it was 72 µM; in the assay with A549 NSCLC it was > 100 µM. Besides, the GI50 with HL-60(TB) leukemia is 71 µM; in the assay with HCT-15 colon it was 42 µM. Also, the TGI is > 100 µM in the assay with COLO 205 colon; > 100 µM in the assay on PC-3 prostate; 63.7 µM in the assay with MDA-MB-231 breast; 64.8 µM in the assay on HCT-116 colon; > 100 µM with NCI/ADR-RES ovarian; > 100 µM in the assay with A549 NSCLC. In addition, the TGI with HL-60(TB) leukemia and with HCT-15 colon was > 100 µM in each case.

Regarding `COC(=O)c1c2c(c(C)[n+]([O-])c1C)C(=O)C(NCc1ccc(F)cc1)=CC2=O`, the GI50 in the assay on COLO 205 colon was 0.376 µM; in the assay with PC-3 prostate, 1.79 µM; in the assay with MDA-MB-231 breast, 1.46 µM; with HCT-116 colon it was 0.957 µM; with NCI/ADR-RES ovarian, 1.68 µM; in the assay on A549 NSCLC, 1.79 µM. Besides, the GI50 with HL-60(TB) leukemia was 0.745 µM; in the assay on HCT-15 colon, 1.23 µM. Moreover, the TGI is 1.36 µM in the assay with COLO 205 colon; > 100 µM in the assay on PC-3 prostate; 4.36 µM with MDA-MB-231 breast; 6.28 µM in the assay with HCT-116 colon; 5.53 µM in the assay with NCI/ADR-RES ovarian; 5.66 µM in the assay on A549 NSCLC. In addition, the TGI with HL-60(TB) leukemia was 3.6 µM; in the assay with HCT-15 colon, 3 µM.

With `CC(=O)O[C@@H]1C2=C(C)C3(CC3)[C@@](C)(O)C(=O)C2=C[C@@]1(C)CO`, the GI50 is 1.22 µM in the assay on COLO 205 colon; 1.02 µM in the assay on PC-3 prostate; 1.8 µM with MDA-MB-231 breast; 0.424 µM in the assay on HCT-116 colon; 0.416 µM in the assay on NCI/ADR-RES ovarian; 1.05 µM with A549 NSCLC. Moreover, the GI50 is 0.414 µM in the assay on HL-60(TB) leukemia and 0.423 µM in the assay on HCT-15 colon. The TGI in the assay with COLO 205 colon was 3.73 µM; in the assay on PC-3 prostate, 12.3 µM; in the assay on MDA-MB-231 breast it was 8.92 µM; with HCT-116 colon it was > 100 µM; in the assay with NCI/ADR-RES ovarian, 4.11 µM; with A549 NSCLC it was 24.2 µM. Besides, the TGI is > 22.5 µM in the assay with HL-60(TB) leukemia and 10.1 µM in the assay with HCT-15 colon.

As to `C=CCC(N[C@H](CO)c1ccccc1)c1ccccn1` (some centres not stated), the GI50 with COLO 205 colon, in the assay on PC-3 prostate, in the assay with MDA-MB-231 breast, with HCT-116 colon, in the assay on NCI/ADR-RES ovarian and in the assay on A549 NSCLC was > 100 µM in each case. The figures for the GI50 in the assay on HL-60(TB) leukemia and in the assay on HCT-15 colon were 38.6 µM and > 100 µM, respectively. Besides, the TGI in the assay on COLO 205 colon, with PC-3 prostate, in the assay with MDA-MB-231 breast, with HCT-116 colon, with NCI/ADR-RES ovarian and in the assay on A549 NSCLC was > 100 µM in each case. Further, the TGI with HL-60(TB) leukemia and with HCT-15 colon was > 100 µM throughout.

`Oc1ccc(Cl)cc1Sc1cc(Cl)ccc1O`: the GI50 was 5.93 µM with COLO 205 colon; 2.72 µM in the assay on PC-3 prostate; 2.72 µM in the assay on MDA-MB-231 breast; 2.79 µM in the assay with HCT-116 colon; 2.48 µM with NCI/ADR-RES ovarian; 3.91 µM in the assay with A549 NSCLC. The GI50 in the assay on HL-60(TB) leukemia and in the assay on HCT-15 colon was 3.19 µM each time. The TGI was 39.9 µM and 20.2 µM in the assay on COLO 205 colon; 30.1 µM and 9.58 µM in the assay with PC-3 prostate; 31.7 µM and 7.71 µM with MDA-MB-231 breast; 19.7 µM and 7.21 µM in the assay with HCT-116 colon; 57.8 µM and 7.47 µM in the assay on NCI/ADR-RES ovarian; 58.6 µM and 13.7 µM in the assay on A549 NSCLC. The TGI in the assay with HL-60(TB) leukemia is 37.3 µM and 7.52 µM; with HCT-15 colon, 45.5 µM and 11.4 µM.

In the case of `NC(Cc1cccnn1)C(=O)O` (configuration not stated), the TGI with COLO 205 colon, in the assay with PC-3 prostate, with MDA-MB-231 breast, with HCT-116 colon, with NCI/ADR-RES ovarian and with A549 NSCLC was > 100 µM throughout. Also, the TGI with HL-60(TB) leukemia and with HCT-15 colon was > 100 µM in each case.

In the case of `C#CCOc1cccc(Nc2ncnc3cc(NC(=O)C=C)ccc23)c1`, the GI50 in the assay on COLO 205 colon is 5.41 µM; in the assay with PC-3 prostate it was 8.36 µM; in the assay with MDA-MB-231 breast, 6.47 µM; in the assay with HCT-116 colon, 4.02 µM; in the assay on NCI/ADR-RES ovarian it was 9.66 µM; in the assay on A549 NSCLC it was 9.44 µM. In addition, the GI50 in the assay with HL-60(TB) leukemia was 3.84 µM; with HCT-15 colon, 3.44 µM. In addition, the TGI with COLO 205 colon, in the assay with PC-3 prostate, with MDA-MB-231 breast, in the assay on HCT-116 colon, in the assay on NCI/ADR-RES ovarian and in the assay with A549 NSCLC was > 100 µM each time. Also, the TGI in the assay with HL-60(TB) leukemia is 45.7 µM; with HCT-15 colon it was > 100 µM.
